Test results from patent US11634452B2, “Compounds for treating neurodegenerative disorders” (ETHNODYNE, priority 2017, dated 2023).

Assays:
[1] = tested on: primary rat cortical neurons injured with Aβ1-42; assay: Neuroprotective effect on an in vitro model of Alzheimer disease; type: cell-based
Protocol: These peptides contribute to cerebrovascular lesions and are neurotoxic. This study investigated the neuroprotective effect of the plant extract of the invention on rat primary cortical cultures following exposure to Aβ1-42 in an in vitro AD model (Callizot. N., et al., 2013).
Rat cortical neurons were cultured as described in Example 6.
The cortical neurons were intoxicated with amyloid beta peptides solutions after 11 days of culture in presence of tested compound CR777.
Briefly, Aβ1-42 peptide (Batch: APN09080-1-1, Abcam, United Kingdom) was dissolved in the defined culture medium B27 mentioned above, devoid of serum, at an initial concentration of 40 μmol/L. This solution was gently agitated for 3 days at 37° C. in the dark and immediately used after being properly diluted in culture medium to the concentrations used (20 μM corresponding to 2 μM of AβO, measuring by WB, for survival, neurite network, tau phosphor and caspase 3 activation and 2.5 μM corresponding to 0.25 μM of AβO, for synapses evaluation).
CR777 was solved in DMSO at 10 mM and diluted in culture medium at different concentrations (see table below). The compound was tested on one primary cortical culture in 96 well plates (6 wells per conditions), and was pre-incubated 1 hour before Aβ1-42 application for 24 hours.
24 hours after intoxication, the cell culture supernatant was taken off and the cortical neurons were fixed by a cold solution of ethanol (95%) and acetic acid (5%) for 5 min at −20° C. • Plate 1: Immunostainning (MAP-2/Tau Phosphor)
After permeabilization with 0.1% of saponin, cells were incubated for 2 hours with a) a mouse monoclonal antibody anti phosphoT at dilution of 1/400 in PBS containing 1% fetal calf serum and 0.1% of saponin and b) a chicken polyclonal antibody anti microtubule-associated-protein 2 (MAP-2) at dilution of 1/1000 in PBS containing 1% fetal calf serum and 0.1% of saponin (this antibody stains specifically cell bodies and neurites, allowing study of neuronal cell survival and neurite network).
(§1) For each condition, 30 pictures/well (representative of ˜the all well area) were taken automatically using ImageXpress (Molecular Devices) with 20× magnification. All images were taken with the same conditions. Analysis were performed automatically by using Custom Module Editor (Molecular Devices).
The following endpoints were investigated per culture well: • The total neuron survival (MAP-2 staining), • The neurite network (MAP-2 staining) and • hyperphophorylation of T protein (pT) into neurons (pT/MAP-2). • Plate 2: Immunostainning (MAP-2/Caspase 3)
as §1, with “Devices). • The total number of caspase 3 positive neuron (overlapping caspase3/MAP-2) were investigated per culture well:” for “Devices).”
Data is expressed in percentage of control conditions (no injury, no compound=100%). All values are expressed as mean+/−SEM (standard error of the mean) from 6 wells per condition per culture. Neuro-Sys performed graphs and statistical analyses on the different conditions (ANOVA followed by Dunnett's test when allowed, using GraphPad Prism software version 5.0).

[2] = tested on: primary rat motor neurons injured with glutamate; assay: Primary motor neuron culture survival after glutamate exposure (in vitro ALS model); type: cell-based; details: CR777 between 1 nM and 10 nM, added 1 h before glutamate (5 μM, 20 min, then 48 h)
Protocol: The aim of this study was to study the effect of CR777 on primary motor neuron culture from rat spinal cord (SC) injured by glutamate exposure (a well validated in vitro ALS model and model of motor neuron diseases).
Rat SC motor neurons were cultured as described by Martinou et al., Neuron. 1992 April; 8(4):737-44 and Wang et al., Hum Mol Genet. 2013 Dec. 1; 22(23):4706-19. Briefly, pregnant female rats (Wistar, Janvier labs) of 14 days gestation were killed by cervical dislocation. […] Cells were then centrifuged at 180 g for 10 min at +4° C. on a layer of BSA (3.5%) in L15 medium. […] The medium was changed every day.
The following conditions were assessed: • Control • + glutamate (5 μM 20 mn then 48 h) • + glutamate (5 μM 20 mn then 48 h)+CR777 1 pmol/L • + glutamate (5 μM 20 mn then 48 h)+CR777 10 pmol/L • + glutamate (5 μM 20 mn then 48 h)+CR777 100 pmol/L • + glutamate (5 μM 20 mn then 48 h)+CR777 1 nmol/L • + glutamate (5 μM 20 mn then 48 h)+CR777 10 nmol/L • + glutamate (5 μM 20 mn then 48 h)+CR777 100 nmol/L • + glutamate (5 μM 20 mn then 48 h)+CR777 1 μmol/L • + glutamate (5 μM 20 mn then 48 h)+CR777 10 μmol/L […]
For each condition, 6 wells were assessed, 30 pictures per well were taken using ImageXpress (Molecular Devices) with 20× magnification, to assess motor neuron survival (MAP-2). […]

[3] = CR777 1 nM to 1 μM added 1 h before Aβ1-42 (20 μM, 24 h)
[4] = CR777 all doses (1 nM to 1 μM), Aβ1-42 20 μM, 24 h

SMILES: CC1=C(CO)C(=O)O[C@@H]([C@@H](C)[C@H]2CCC3C4C[C@H](SC[C@H](NC(=O)CC[C@@H](N)C(=O)O)C(=O)NCC(=O)O)[C@]5(O)[C@@H](O)C=CC(=O)[C@]5(C)C4CC[C@@]32C)C1 (some centres unmarked) [CR777]
- neurite network [1, 3]: significant protective effect
- neuron survival [1, 3]: significant protective effect
- caspase 3 activation [1, 4]: decrease of caspase 3 activation
- tau hyperphosphorylation [1, 4]: significant decrease
- motor neuron survival [2]: moderate and significant protective effect
